Measured values taken from PubChem BioAssay AID248 (DTP/NCI, 2004).
Inconclusive results and toxic doses are left out.

System: L1210 leukemia ip in BDF1 mice, survival T/C
Test: NCI In Vivo Anticancer Drug Screen. Data for tumor model L1210 Leukemia (intraperitoneal) in B6D2F1 (BDF1) mice
Details: endpoint: mean survival time, higher = longer survival
In short: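 Mice bearing the transplanted tumor received compound or vehicle. Survival of the treated group was divided by that of the vehicle-treated control group to give the ratio.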

[1] = dose: 100.0 mg/kg/injection, schedule: Q04DX003 (ip), vehicle: Klucel (hydroxypropylcellulose) (HPC)
[2] = dose: 200.0 mg/kg/injection, schedule: Q04DX003 (ip), vehicle: Klucel (hydroxypropylcellulose) (HPC)
[3] = dose: 400.0 mg/kg/injection, schedule: Q04DX003 (ip), vehicle: Klucel (hydroxypropylcellulose) (HPC)
[4] = dose: 100.0 mg/kg/injection, schedule: Q04DX003 (ip), vehicle: saline with Tween-80
[5] = dose: 200.0 mg/kg/injection, schedule: Q04DX003 (ip), vehicle: saline with Tween-80
[6] = dose: 400.0 mg/kg/injection, schedule: Q04DX003 (ip), vehicle: saline with Tween-80
[7] = dose: 100.0 mg/kg/injection, schedule: Q01DX009 (ip), vehicle: saline with Tween-80
[8] = dose: 200.0 mg/kg/injection, schedule: Q01DX009 (ip), vehicle: saline with Tween-80
[9] = dose: 400.0 mg/kg/injection, schedule: Q01DX009 (ip), vehicle: saline with Tween-80
[10] = dose: 100.0 mg/kg/injection, schedule: Q01DX001 (ip), vehicle: carboxymethylcellulose (CMC)
[11] = dose: 100.0 mg/kg/injection, schedule: Q01DX001 (ip), vehicle: saline with Tween-80
[12] = dose: 200.0 mg/kg/injection, schedule: Q01DX001 (ip), vehicle: saline with Tween-80
[13] = dose: 400.0 mg/kg/injection, schedule: Q01DX001 (ip), vehicle: saline with Tween-80
[14] = dose: 200.0 mg/kg/injection, schedule: Q01DX001 (ip), vehicle: carboxymethylcellulose (CMC)
[15] = dose: 400.0 mg/kg/injection, schedule: Q01DX001 (ip), vehicle: carboxymethylcellulose (CMC)
[16] = dose: 100.0 mg/kg/injection, schedule: Q01DX001 (ip), vehicle: saline

CCOC(=O)C(CCc1c[nH]c(=O)[nH]c1=O)(NC(C)=O)C(=O)OCC was tested, and the T/C (dose: 50.0 mg/kg/injection, schedule: Q04DX002 (ip), vehicle: saline) was 102 % of control, the T/C (dose: 100.0 mg/kg/injection, schedule: Q04DX002 (ip), vehicle: saline) was 122 % of control and the T/C (dose: 200.0 mg/kg/injection, schedule: Q04DX002 (ip), vehicle: saline) was 102 % of control. For the same molecule, the T/C (dose: 400.0 mg/kg/injection, schedule: Q04DX002 (ip), vehicle: saline) was 104 % of control.
With COC(=O)CN(C(=O)c1ccc(OC(C)=O)cc1)c1ccccc1 the T/C [1] was 100 % of control, the T/C [2] was 94 % of control and the T/C [3] was 96 % of control.
With COc1ccc(C(C)c2ccc(OC)cc2)cc1 the T/C [4] was 93 % of control, the T/C [5] was 95 % of control and the T/C [6] was 91 % of control.
In the case of CC(C)N(CCCO)C(C)C, the T/C (dose: 50.0 mg/kg/injection, schedule: Q01DX009 (ip), vehicle: saline) is reported as 95 % of control, the T/C (dose: 100.0 mg/kg/injection, schedule: Q01DX009 (ip), vehicle: saline) is reported as 93 % of control and the T/C [4] is reported as 95 % of control. For the same molecule, the T/C (dose: 200.0 mg/kg/injection, schedule: Q01DX009 (ip), vehicle: saline) was 95 % of control and the T/C [5] was 97 % of control.
In the case of CCN(CC)CCOc1ccc(C(=O)/C(=C/c2ccc3c(c2)OCO3)c2ccccc2)cc1, the T/C (dose: 100.0 mg/kg/injection, schedule: Q04DX003 (sc), vehicle: olive oil, sesame oil, peanut oil) is reported as 103 % of control, the T/C (dose: 200.0 mg/kg/injection, schedule: Q04DX003 (sc), vehicle: olive oil, sesame oil, peanut oil) is reported as 97 % of control and the T/C (dose: 400.0 mg/kg/injection, schedule: Q04DX003 (sc), vehicle: olive oil, sesame oil, peanut oil) is reported as 100 % of control.
CC(C)(O)C(C)(O)c1ccc(Cl)cc1 (configuration not stated) was tested, and the T/C (dose: 25.0 mg/kg/injection, schedule: Q01DX009 (ip), vehicle: saline with Tween-80) was 93 % of control, the T/C (dose: 25.0 mg/kg/injection, schedule: Q04DX003 (ip), vehicle: Klucel (hydroxypropylcellulose) (HPC)) was 101 % of control and the T/C (dose: 50.0 mg/kg/injection, schedule: Q01DX009 (ip), vehicle: saline with Tween-80) was 102 % of control. For the same molecule, the T/C (dose: 50.0 mg/kg/injection, schedule: Q04DX003 (ip), vehicle: Klucel (hydroxypropylcellulose) (HPC)) was 101 % of control, the T/C [7] was 98 % of control and the T/C [1] was 101 % of control. For the same molecule, the T/C [8] was 104 % of control, the T/C [2] was 106 % of control and the T/C [9] was 94 % of control. For the same molecule, the T/C [3] was 95 % of control.
With O=NN(CCCl)C(=O)Nc1cccc(Cl)c1 the T/C (dose: 2.28 mg/kg/injection, schedule: Q01DX001 (ip), vehicle: carboxymethylcellulose (CMC)) was 112 % of control, the T/C (dose: 4.56 mg/kg/injection, schedule: Q01DX001 (ip), vehicle: carboxymethylcellulose (CMC)) was 116 % of control and the T/C [10] was 160 % of control. The T/C (dose: 125.0 mg/kg/injection, schedule: Q01DX001 (ip), vehicle: carboxymethylcellulose (CMC)) was 104 % of control, the T/C (dose: 150.0 mg/kg/injection, schedule: Q01DX001 (ip), vehicle: carboxymethylcellulose (CMC)) was 153 % of control and the T/C (dose: 175.0 mg/kg/injection, schedule: Q01DX001 (ip), vehicle: carboxymethylcellulose (CMC)) was 156 % of control.
For CCOC(=O)NNC(=O)CN, the T/C (dose: 75.0 mg/kg/injection, schedule: Q01DX001 (ip), vehicle: saline) was 104 % of control.
For CC(/C(=N\N=C(N)N)c1ccccc1)N(C)C (configuration not stated), the T/C (dose: 15.0 mg/kg/injection, schedule: Q01DX Z (ip), vehicle: methylcellulose (MC)) was 94 % of control, the T/C (dose: 30.0 mg/kg/injection, schedule: Q01DX Z (ip), vehicle: methylcellulose (MC)) was 108 % of control and the T/C (dose: 50.0 mg/kg/injection, schedule: Q01DX Z (oral), vehicle: methylcellulose (MC)) was 100 % of control. For the same molecule, the T/C (dose: 60.0 mg/kg/injection, schedule: Q01DX Z (ip), vehicle: methylcellulose (MC)) was 95 % of control, the T/C (dose: 100.0 mg/kg/injection, schedule: Q01DX Z (oral), vehicle: methylcellulose (MC)) was 86 % of control and the T/C (dose: 120.0 mg/kg/injection, schedule: Q01DX Z (ip), vehicle: methylcellulose (MC)) was 88 % of control.
For O=C(CC(O)(C(F)(F)F)C(F)(F)F)c1ccccc1[N+](=O)[O-], the T/C (dose: 12.5 mg/kg/injection, schedule: Q01DX009 (ip), vehicle: DMSO) was 94 % of control, the T/C (dose: 12.5 mg/kg/injection, schedule: Q04DX003 (ip), vehicle: DMSO) was 97 % of control and the T/C (dose: 25.0 mg/kg/injection, schedule: Q01DX009 (ip), vehicle: DMSO) was 86 % of control. The T/C (dose: 25.0 mg/kg/injection, schedule: Q04DX003 (ip), vehicle: DMSO) was 95 % of control, the T/C (dose: 50.0 mg/kg/injection, schedule: Q04DX003 (ip), vehicle: DMSO) was 110 % of control and the T/C (dose: 100.0 mg/kg/injection, schedule: Q04DX003 (ip), vehicle: DMSO) was 102 % of control.
With CCOC(=O)C(=O)Nc1ccc(Cl)cc1 the T/C [11] was 96 % of control, the T/C [12] was 96 % of control and the T/C [13] was 95 % of control.
CC(=O)/C(C)=C\c1ccc(O)cc1 was tested, and the T/C [4] was 91 % of control, the T/C [5] was 98 % of control and the T/C [6] was 102 % of control.
For CC(=O)OCC1OC(Oc2ccccc2)C(OC(C)=O)C(OC(C)=O)C1OC(C)=O (configuration not stated), the T/C [11] was 101 % of control, the T/C [7] was 101 % of control and the T/C [12] was 96 % of control. The T/C [8] was 95 % of control, the T/C [13] was 101 % of control and the T/C [9] was 96 % of control.
With O=C(O)c1ccccc1Cl.[Ni] the T/C (dose: 25.0 mg/kg/injection, schedule: Q04DX002 (ip), vehicle: Klucel (hydroxypropylcellulose) (HPC)) was 94 % of control and the T/C (dose: 50.0 mg/kg/injection, schedule: Q04DX002 (ip), vehicle: Klucel (hydroxypropylcellulose) (HPC)) was 109 % of control.
In the case of O=[N+]([O-])c1ccc(Oc2ccc(Cl)cc2)cc1, the T/C [1] is reported as 94 % of control, the T/C [2] is reported as 102 % of control and the T/C [3] is reported as 94 % of control.
In the case of Nc1nc(N)c(N=Nc2ccc(S(=O)(=O)Nc3nccs3)cc2)cc1N=Nc1ccccc1, the T/C [10] is reported as 94 % of control, the T/C [14] is reported as 92 % of control and the T/C [15] is reported as 105 % of control.
CCCCC(=O)N/N=C\c1c(O)cc(OC)cc1OC was tested, and the T/C [10] was 87 % of control, the T/C [14] was 87 % of control and the T/C [15] was 93 % of control.
For CCOC(Nc1ccccc1[N+](=O)[O-])C(=O)c1ccccc1 (configuration not stated), the T/C [16] was 91 % of control, the T/C (dose: 200.0 mg/kg/injection, schedule: Q01DX001 (ip), vehicle: saline) was 86 % of control and the T/C (dose: 400.0 mg/kg/injection, schedule: Q01DX001 (ip), vehicle: saline) was 89 % of control.
For C1CCC2C(C1)CCCC2C(C1CCCC2CCCCC21)C1CCCC2CCCCC21 (configuration not stated), the T/C [11] was 90 % of control, the T/C [12] was 90 % of control and the T/C [13] was 90 % of control.
CC(C)C(C(N)=O)N1C(=O)C2C3CCC(C3)C2C1=O (configuration not stated) was tested, and the T/C (dose: 100.0 mg/kg/injection, schedule: Q04DX003 (ip), vehicle: saline) was 98 % of control, the T/C (dose: 200.0 mg/kg/injection, schedule: Q04DX003 (ip), vehicle: saline) was 95 % of control and the T/C (dose: 400.0 mg/kg/injection, schedule: Q04DX003 (ip), vehicle: saline) was 107 % of control.
C=C1C(=O)OC2CC3(C)C(O)CCC(=C)C3C(OC(C)=O)C12 (configuration not stated) (tested in a mixture with another compound) was tested, and the T/C [16] was 104 % of control.
In the case of COc1ccc(CCNC(=O)C(=O)NCCc2ccc(OC)c(OC)c2)cc1OC, the T/C [1] is reported as 101 % of control, the T/C [2] is reported as 89 % of control and the T/C [3] is reported as 92 % of control.
In the case of CC(C)CCC1=C(O)c2ccccc2C(=O)C1=O, the T/C (dose: 30.0 mg/kg/injection, schedule: Q01DX015 (ip), vehicle: water) is reported as 100 % of control, the T/C (dose: 35.0 mg/kg/injection, schedule: Q01DX015 (ip), vehicle: water) is reported as 106 % of control and the T/C (dose: 45.0 mg/kg/injection, schedule: Q01DX015 (ip), vehicle: water) is reported as 95 % of control. For the same molecule, the T/C (dose: 70.0 mg/kg/injection, schedule: Q01DX015 (ip), vehicle: water) was 103 % of control.
In the case of COc1cc2c(cc1OC)C1CC3(CC4c5cc(OC)c(OC)cc5CCN4CC3CO)C(CO)CN1CC2 (configuration not stated), the T/C (dose: 4.0 mg/kg/injection, schedule: Q04DX003 (ip), vehicle: water) is reported as 101 % of control, the T/C (dose: 8.0 mg/kg/injection, schedule: Q04DX003 (ip), vehicle: water) is reported as 101 % of control and the T/C (dose: 16.0 mg/kg/injection, schedule: Q04DX003 (ip), vehicle: water) is reported as 110 % of control. The T/C (dose: 32.0 mg/kg/injection, schedule: Q04DX003 (ip), vehicle: water) was 103 % of control and the T/C (dose: 64.0 mg/kg/injection, schedule: Q04DX003 (ip), vehicle: water) was 101 % of control.
